Earlier results, collected in patent US20080195229A1, “Decellularized pericardial tissue” (priority 2007, published 2008).

What was measured:
rabbit = settings: in vivo, iv
[1] = tested on: Chinese hamster ovary (CHO-K1) cells; settings: in vitro
3T3 fibroblasts = settings: in vitro

SMILES | solubility in alcohol (alcohol) | solubility in water (water) | LD50 (rabbit) | clastogenic response (genotoxicity) [1] | cytotoxicity compared with glutaraldehyde (3T3 fibroblasts)
C[C@H](CCC(=O)O)[C@H]1CC[C@H]2[C@@H]3CC[C@@H]4C[C@H](O)CC[C@]4(C)[C@H]3C[C@H](O)[C@]12C [Deoxycholic acid] | soluble | sparingly soluble | 15 mg/kg | – | –
COC(=O)C1=CO[C@@H](O)[C@@H]2C(CO)=CC[C@H]12 [genipin] | – | – | – | does not cause clastogenic response | substantially less cytotoxic than glutaraldehyde
